Results on nine compounds are retold here after patent US20140009887A1, “FLUORINATED OXIRANES AS HEAT TRANSFER FLUIDS” (3M INNOVATIVE PROPERTIES COMPANY, priority 2011, published 2014).

A short description of series [1]: Atmospheric lifetime from kinetic studies for reaction with hydroxyl radical. It counts as physicochemical. The note with it: based on kinetic studies for reaction with hydroxyl radical. The text has this:
The atmospheric lifetimes of C6F14 and CF3OCF(CF3)CF2OCF2OCF3 are reported as 3200 years and 800 years, respectively (see Climate Change 2007: The Physical Science Basis. Contribution of Working Group I to the Fourth Assessment Report of the Intergovernmental Panel on Climate Change, Solomon, S., D. Qin, M. Manning, Z. Chen, M. Marquis, K. B. Averyt, M. Tignor and H. L. Miller (eds.), Cambridge University Press, Cambridge, United Kingdom and New York, N.Y., USA, 996 pp, 2007.). […] Based on kinetic studies for reaction with hydroxyl radical, 2,3-difluoro-2-(1,2,2,2-tetrafluoro-l-trifluoromethyl-ethyl)-3-trifluoromethyl-oxirane has an estimated atmospheric lifetime of 20 years.

The conditions of series [2]: reported in Climate Change 2007, IPCC Fourth Assessment Report; cited from earlier work.
Series [3] is described as follows: Normal boiling point (thermophysical properties). It counts as physicochemical. The text has this: (§1) The useful liquid range (between the pour point and the normal boiling point) of the fluorinated oxiranes (Examples 1-3) are similar to perfluorocarbons (Comparative 1), perfluoroketones (Comparative 2), and perfluoroethers (Comparative 3). The specific heat capacity of the Comparatives is also very similar to the exemplary fluorinated oxiranes.

Another series is described as follows: Vapor pressure. It counts as physicochemical.
From the text: as §1

A short description of the next series: Kinematic viscosity. Type of series: physicochemical. The conditions noted are these: for Viscosity @ 25° C.: kinematic viscosity; for Low temperature kinematic viscosity (in words): compared with fluids close in boiling point, FIG. 1 and FIG. 2.
From the text: as §1
The viscosity impacts the heat transfer performance and liquid pumping power.

Series [4] in a line: Hydrolytic stability: fluoride ion in water phase after aging with deionized water. Type of series: physicochemical. The conditions noted are these: for F concentration after 30 min at 25° C. / F concentration after 4 hours at 50° C.: 5 g material + 5 g deionized water; for F concentration after 30 min at 25° C.: agitated 30 min at room temperature (~25° C.); for F concentration after 4 hours at 50° C.: monel pressure vessel. The method, then: Example 1 and Comparatives 1 and 2 were tested for hydrolytic stability at room temperature (˜25° C.) and 50° C. Room temperature testing was conducted by placing 5 grams of test material along with 5 grams of deionized water in new polypropylene, centrifuge tubes which were then sealed and agitated for 30 minutes using a shaker set at low speed. Elevated temperature testing was carried out by placing 5 grams of test material along with 5 grams deionized water in a clean monel pressure vessel which was sealed and placed in a convection oven set at 50° C. for 4 hours. After aging, the fluoride concentrations were determined by mixing 0.5 ml of the water phase from each sample with 0.5 ml of TISAB II buffer solution and measuring fluoride ion concentration using a calibrated fluoride selective electrode connected to a pH/millivolt meter (both the electrode and buffer solutions are available from Thermo Scientific Orion, Beverly, Mass.). The hydrolytic stability of Example 1, Comparative Example 1 and Comparative Example 2 were determined and are reported as parts per million by weight (ppmw) of fluorine in Table III below.

A short description of series [5]: Pour point (thermophysical properties). Type of series: physicochemical.
From the text: as §1

Another series in a line: Specific heat capacity. It counts as physicochemical.
From the text: as §1

Series [6] is described as follows: Dielectric breakdown strength according to ASTM D877. Type of series: physicochemical. The conditions noted are these: ASTM D877, model LD60 liquid dielectric test set. As for the experimental part:
In applications where the direct contact of energized, electronic components by the heat transfer fluid occurs, whether intended or otherwise, the need exists for fluids with dielectric breakdown strengths greater than around 8 megavolts/meter (MV/m), measured according to ASTM D877. Such high dielectric breakdown strengths help to avoid damage to the electronic components through short circuits.
The dielectric breakdown strengths of Example 1 and 3 were determined according to ASTM D877, using a model LD60 liquid dielectric test set available from Phenix Technologies, Accident, Md. The breakdown strengths for example 1 and 3 were 15.5 MV/m and 17.3 MV/m respectively.

Consider `FC(F)(F)C(F)(F)C1(F)OC1(C(F)(F)F)C(F)(F)F` (stereo not drawn) [2-fluoro-2-pentafluoroethyl-3,3-bis-trifluoromethyl-oxirane], for which the Estimated atmospheric lifetime in series [1] is 77 years.
Turning to `FC(F)(F)OC(F)(F)OC(F)(F)C(F)(OC(F)(F)F)C(F)(F)F` (stereo not drawn) [CF3OCF(CF3)CF2OCF2OCF3], the Atmospheric lifetime in [2] is recorded as 800 years.
Regarding `FC(F)(F)C(F)(F)C(F)(F)C(F)(F)C(F)(F)C(F)(F)F` [Comparative 1, Perfluorohexane], the “Normal Boiling Point” value in [3] was determined as 56 °C. In series [2], the Atmospheric lifetime is reported as 3200 years. For the same compound, the “Vapor Pressure @ 25° C.” value in “Vapor pressure” came out at 30.0 kPa. In addition, the “Viscosity @ 25° C.” value in “Kinematic viscosity” is given as 3.8 ×10^−7 m^2/s. Moreover, in series [4], the “F concentration after 30 min at 25° C.” value was found to be 0.09 ppmw and the “F concentration after 4 hours at 50° C.” value is 0.23 ppmw. For the same compound, the “Pour Point” value in series [5] was −90 °C. Moreover, the “Specific Heat Capacity” value in the series “Specific heat capacity” came to 1100 J/kg-K.
`O=C(C(F)(F)C(F)(F)F)C(F)(C(F)(F)F)C(F)(F)F` [Comparative 2, Dodecafluoro-2-methylpentan-3-one]: the “Normal Boiling Point” value in [3] came out at 49 °C. In addition, the “Vapor Pressure @ 25° C.” value in the series “Vapor pressure” amounted to 40.4 kPa. The “Viscosity @ 25° C.” value in the series “Kinematic viscosity” is 4.0 ×10^−7 m^2/s. In [4], the “F concentration after 30 min at 25° C.” value is 1.13 ppmw and the “F concentration after 4 hours at 50° C.” value came out at 5.89 ppmw. In addition, the “Pour Point” value in series [5] was −108 °C. Besides, the “Specific Heat Capacity” value in “Specific heat capacity” stood at 1103 J/kg-K.
In the case of `CCOC(F)(C(F)(F)C(F)(F)C(F)(F)F)C(F)(C(F)(F)F)C(F)(F)F` (stereo not drawn) [Comparative 3, 2-trifluoromethyl-3-ethoxydodecafluorohexane], the “Normal Boiling Point” value in series [3] is 128 °C. Moreover, in “Vapor pressure”, the “Vapor Pressure @ 25° C.” value was determined as 2.1 kPa. In addition, the “Viscosity @ 25° C.” value in the series “Kinematic viscosity” was 7.7 ×10^−7 m^2/s. Moreover, the “Pour Point” value in [5] was −100 °C. The “Specific Heat Capacity” value in “Specific heat capacity” came out at 1128 J/kg-K.
The matching figures for `FC(F)(F)C(F)(F)C(F)(F)N(C(F)(F)C(F)(F)C(F)(F)F)C(F)(F)C(F)(F)C(F)(F)F` [Comparative 4, Perfluorotripropylamine]: 130 °C, 1.4 kPa, 7.5 ×10^−7 m^2/s, −50 °C and 1100 J/kg-K.
Consider `FC(F)(F)C1(F)OC1(F)C(F)(C(F)(F)F)C(F)(F)F` (stereo not drawn) [Example 1, 2,3-difluoro-2-(1,2,2,2-tetrafluoro-1-trifluoromethyl-ethyl)-3-trifluoromethyl-oxirane], for which the Estimated atmospheric lifetime in [1] is on record as 20 years. The “Normal Boiling Point” value in series [3] was 51.7 °C. Further, in [6], the Dielectric breakdown strength amounted to 15.5 MV/m. Besides, the “Vapor Pressure @ 25° C.” value in “Vapor pressure” came out at 36.0 kPa. Further, in “Kinematic viscosity”, the “Viscosity @ 25° C.” value is given as 3.7 ×10^−7 m^2/s and the “Low temperature kinematic viscosity (in words)” value is “better low temperature viscosity”. For the same compound, in [4], the “F concentration after 30 min at 25° C.” value is 0.14 ppmw and the “F concentration after 4 hours at 50° C.” value was 0.13 ppmw. In series [4] (room temperature and 50° C.), the “Hydrolytic stability (comparison in words)” value is “comparable to that of comparative 1 and better than comparative 2”. Moreover, in series [5], the “Pour Point” value was −145 °C. In “Specific heat capacity”, the “Specific Heat Capacity” value turned out to be 1145 J/kg-K.
For the compound `FC1(F)C(F)(F)C(F)(F)C2(F)OC2(F)C1(F)F` (stereo not drawn) [Example 2, 1,2,2,3,3,4,4,5,5,6-decafluoro-7-oxa-bicyclo [4.1.0]heptane], the “Normal Boiling Point” value in [3] was found to be 56.1 °C. The “Vapor Pressure @ 25° C.” value in “Vapor pressure” came to 30.3 kPa. Further, in “Kinematic viscosity”, the “Viscosity @ 25° C.” value is 6.6 ×10^−7 m^2/s and the “Low temperature kinematic viscosity (in words)” value is given as “better low temperature viscosity”. For the same compound, in [5], the “Pour Point” value was −88 °C. The “Specific Heat Capacity” value in “Specific heat capacity” stood at 1083 J/kg-K.
Consider HFP Trimer-Oxirane [Example 3], for which, in series [3], the “Normal Boiling Point” value was found to be 121.9 °C. This compound came in with a Dielectric breakdown strength in series [6] of 17.3 MV/m. The “Vapor Pressure @ 25° C.” value in “Vapor pressure” worked out at 1.6 kPa. For the same compound, in the series “Kinematic viscosity”, the “Viscosity @ 25° C.” value is given as 12.5 ×10^−7 m^2/s and the “Low temperature kinematic viscosity (in words)” value is “acceptable viscosity for heat transfer applications as low as −40 °C”. The “Pour Point” value in series [5] is −103 °C. Moreover, the “Specific Heat Capacity” value in “Specific heat capacity” turned out to be 869 J/kg-K.
